For two compounds, Activity results are on record in ChEMBL document CHEMBL6177980 (J Med Chem, 2025).

Test [1] relates to Severe fever with thrombocytopenia syndrome virus. Kind of test: In vivo antiviral activity against SFTSV infected in mouse harboring IFNAR1tm1Agt assessed as improvement in lymphocytes percentage treated orally once daily for 7 days. It is filed as functional, organism-based. The settings on record: dose 2.5-100 mg/kg, route po, time 7.0 day.
Test [2] shares this test system. Kind of test: In vivo antiviral activity against SFTSV infected in mouse harboring IFNAR1tm1Agt assessed as improvement in lymphocytes percentage at 300 mg/kg, po qd treated for 7 days relative to control. It is filed as functional, organism-based. As to conditions: time 7.0 day.

Activity calls are given as the source filed them. The rule behind the calls is not given here.

Consider `CC(C)C(=O)OC[C@@]1(F)O[C@@H](n2ccc(=O)n(COC(=O)c3cccnc3)c2=O)[C@H](OC(=O)C(C)C)[C@@H]1OC(=O)C(C)C`, for which the Activity result in test [1] was “Dose-dependent-effect”.

`NC(=O)c1nc(F)cnc1O`: in test [2], the outcome was Active.
